Assay results published in patent US20230202982A1, “5-CHLORO-4-HYDROXY-1-METHYL-2-OXO-N-PHENYL-QUINOLINE-3-CARBOXAMIDE POTASSIUM SALT FOR TREATING INFLAMMATORY BOWEL DISEASES” (Aqilion AB, priority 2020, published 2023).
≈ marks a conversion by molar mass, not a printed value. Entries after “also recorded” stand apart in the source; their conditions may differ. Structures can show the parent of a compound that is named as a salt.

Columns and labels:
[1] = Thermogravimetric analysis (TGA) and differential scanning calorimetry (DSC); assay type: physicochemical; details: heating 20° C./min, nitrogen
Procedure: For the TGA analysis, approximately 5-10 mg of sample of Example Compound 1 was accurately weighed into a pierced Tzero aluminium pan and sealed with a pinhole lid using a crimper. The sample was then loaded into the chamber of a TGA thermal analyser at ambient temperature. A TA Instruments TGA5500 device was used. The sample was then heated at a rate of 20° C./min from 20° C. to 400° C. The purge gas used was nitrogen at a flow rate of 50 cm^3/min.
For the DSC analysis, approximately 2 mg of sample was accurately weighed into a pierced Tzero aluminium pan and sealed using a universal crimper. The sample was then loaded into the chamber of a DSC analyser at ambient temperature. A TA Instruments DSC2500 device was used. The sample was then heated at a rate of 20° C./min from 30° C. to 400° C. The purge gas used was nitrogen at a flow rate of 50 cm^3/min

[2] = Slurry in water for 48 hours, re-examined by XRPD (disproportionation); assay type: physicochemical; details: slurry in water 20 mg / 400 uL, ambient temperature
Procedure: When a sample of Example compound 1 was stored in a slurry in water at 20 mg / 400uL for 48 hours at ambient temperature, recovered, dried by evaporation and re-examined by XRPD, there was no change in the X-ray diffractogram.

[3] = Hygroscopicity by Dynamic Vapour Sorption (DVS); assay type: physicochemical; details: 25° C.; for Hygroscopicity: DVS, 0 to 90% RH; for Reversible weight gain (DVS): analysed to 80% RH
Procedure: Dynamic Vapour Sorption (DVS) analysis was carried out on a sample of Example compound 1.
Approximately 20 mg of sample was placed into a wire-mesh vapour sorption balance pan and loaded into an ‘IgaSorp’ vapour sorption balance (Hiden Analytical Instruments). The sample was then dried by maintaining a 0% humidity environment until no further weight change was recorded.
The sample was then subjected to a step profile from 0 to 90% RH at 10% RH increments. The desorption isotherm was from 90% RH o 0% RH in 10% RH steps. The weight change during the sorption/desorption cycles were then monitored, allowing for the hygroscopic nature of the sample to be determined. Analysis was performed using the following parameters: • Analysis Mode F1 • Wait Time 99% • Sample Temperature 25° C. • Min Time Out 30 Mins • MaxTime Out 180 Mins • Gas Flow Rate 250 ml/min

[4] = Solubility in PBS (pH 7.4) and simulated colonic fluid, saturated solutions by HPLC-UV; assay type: physicochemical; details: saturated solution, ambient temperature
Procedure: The solubility and stability at room temperature of Example compound 1 and the free acid compound 5-chloro-4-hydroxy-1-methyl-2-oxo-N-phenyl-quinoline-3-carboxamide (described in Example 1a) above) was determined in PBS (pH 7.4) and in simulated colonic fluid (SCF) at ambient temperature. The SCF was the product FaSSCof obtained from Biorelevant.com prepared according to the manufacturer’s instructions. FaSSCof contains 0.15 mM sodium cholate, 0.3 mM Phospholipids, 0.1 mM Oleate, 120 mM sodium hydroxide, 45 mM TRIS and 76 mM maleate.
Saturated solutions were prepared in these solvents and the concentrations/impurity profile was determined by HPLC-UV using a calibration curve in the range of 1 to 150 µg/ml at 300 nm or 320 nm. Visual evaluation was also performed after every step over the testing period.

[5] = system: Ulcerative Colitis modelled by Dextran Sulphate Sodium (DSS); assay: DSS mouse model of Ulcerative Colitis; assay type: in vivo, C57B1/6 mice; details: 1 mg/kg daily oral; for Colitis clinical score: Day 9, vs vehicle-treated controls, FIG. 8; for Colon length: Day 10 termination, FIG. 10
Procedure: Ulcerative Colitis was modelled in C57B1/6 mice by administering Dextran Sulphate Sodium (DSS) in drinking water (1.5% w/v) for 5 days. Mice were monitored daily for weight loss and clinical symptoms of disease for 10 days starting at the beginning of DSS administration.
Anti-TNFα antibody was administered at 500 µg/treatment on Days 0, 2, 4, and 6. Following termination on Day 10, colons were removed and measured. The length and weight of the colon were also assessed.
Compared to naive animals, animals given DSS water developed clinical signs of disease including weight loss and diarrhoea as well as gross pathological signs of disease on experiment termination. […] Shortened length and increased weight:length ratio indicates edema associated with ulcerative colitis.

[6] = listed as 5-chloro-4-hydroxy-1-methyl-2-oxo-N-phenyl-quinoline-3-carboxamide free acid

Cn1c(=O)c(C(=O)Nc2ccccc2)c(O)c2c(Cl)cccc21 [Example compound 2, 5-chloro-4-hydroxy-1-methyl-2-oxo-N-phenyl-quinoline-3-carboxamide sodium salt]
Degradation temperature ([1]; listed as 5-chloro-4-hydroxy-1-methyl-2-oxo-N-phenyl-quinoline-3-carboxamide sodium salt, sodium salt): around 350 °C
Degradation temperature ([1]; listed as Example Compound 2, sodium salt): 350 °C ±2 °C
Stability in water slurry: change in X-ray diffractogram [2]: slight changes
Hygroscopicity [3]: slightly hygroscopic
Reversible weight gain (DVS) [3]: 1%

Cn1c(=O)c(C(=O)Nc2ccccc2)c([O-])c2c(Cl)cccc21.[Li+] [Example compound 3, 5-chloro-4-hydroxy-1-methyl-2-oxo-N-phenyl-quinoline-3-carboxamide lithium salt]
Degradation temperature ([1]; listed as 5-chloro-4-hydroxy-1-methyl-2-oxo-N-phenyl-quinoline-3-carboxamide lithium salt, lithium salt): around 360 °C
Degradation temperature ([1]; listed as Example Compound 3, lithium salt): 360 °C ±2 °C
Stability in water slurry: change in X-ray diffractogram [2]: slight changes
Hygroscopicity [3]: slightly hygroscopic
Reversible weight gain (DVS) [3]: less than 0.25%

Cn1c(=O)c(C(=O)Nc2ccccc2)c(O)c2c(Cl)cccc21 [Free Acid, 5-chloro-4-hydroxy-1-methyl-2-oxo-N-phenyl-quinoline-3-carboxamide]
Solubility in PBS (pH7.4) ([4]; PBS (pH 7.4), listed as 5-chloro-4-hydroxy-1-methyl-2-oxo-N-phenyl-quinoline-3-carboxamide free acid): not quantifiable; also recorded: Non quantifiable
solubility ([4]; simulated colonic fluid (FaSSCof), fassgf or other biorelevant, thermodynamic from solid, SCF (FaSSCof), read-out: Solubility in simulated colonic fluid (SCF)): 3.44 µg/mL (≈ 10.5 µM)
Degradation temperature [1]: 260 °C ±2 °C
Degradation temperature [1, 6]: 260 °C
Colitis clinical score [5]: protective effect against the development of the clinical symptoms
Colitis clinical score [5, 6]: significant reduction
Colitis clinical score ([5]; listed as 5-chloro-4-hydroxy-1-methyl-2-oxoN-phenyl-quinoline-3-carboxamide free acid): lower colitis score
Colon length ([5]; vs vehicle-treated controls): effective at reducing colon shortening
Colon length ([5]; vs vehicle-treated controls, listed as 5-chloro-4-hydroxy-1-methyl-2-oxo-N-phenyl-quinoline-3-carboxamide free acid): significant increase; also recorded: greater colon length
Body weight change (% change from day 1 of experiment) ([5]; vs vehicle-treated controls, FIG. 9): reduced weight loss
